Experimental findings from ChEMBL document CHEMBL4052810, “Synthesis and evaluation of vitamin D3 analogues with C-11 modifications as inhibitors of Hedgehog signaling” (Bioorg Med Chem Lett, 2017) are described below.

For series [1], the species on record is Mus musculus. Kind of series: Inhibition of Hedgehog signaling pathway in mouse C3H10T1/2 cells assessed as reduction in oxysterol-induced Gli1 mRNA expression at 5 uM after 24 hrs by q-PCR analysis relative to oxysterol alone. Format: cell-based.
Series [2] is described as follows: (§1) Inhibition of Hedgehog signaling pathway in mouse C3H10T1/2 cells assessed as reduction in oxysterol-induced Gli1 mRNA expression after 24 hrs by q-PCR analysis. Format: cell-based. The following applies: C3H 10T1/2, 24 h.
The species named for series [3] is Mus musculus. The description is as §1. Format: cell-based.
For series [4], the target named is T1, Cyp24A1 mRNA (readout of VDR activation) (Mus musculus, UniProt P48281).
T1 sequence (P48281 whole entry): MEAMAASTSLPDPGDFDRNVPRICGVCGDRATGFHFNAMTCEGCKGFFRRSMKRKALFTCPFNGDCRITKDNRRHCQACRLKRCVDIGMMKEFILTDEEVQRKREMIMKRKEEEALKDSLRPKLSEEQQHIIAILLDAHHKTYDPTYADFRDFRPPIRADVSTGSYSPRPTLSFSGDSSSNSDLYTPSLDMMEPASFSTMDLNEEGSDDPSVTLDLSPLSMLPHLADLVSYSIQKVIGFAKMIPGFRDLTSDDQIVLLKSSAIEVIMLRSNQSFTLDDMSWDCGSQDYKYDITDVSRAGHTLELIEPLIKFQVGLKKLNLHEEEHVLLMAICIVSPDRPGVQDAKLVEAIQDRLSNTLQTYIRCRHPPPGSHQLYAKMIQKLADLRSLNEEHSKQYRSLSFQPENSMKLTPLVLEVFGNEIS
Briefly: Activation of VDR in mouse C3H10T1/2 cells assessed as change in Cyp24A1 mRNA expression at 5 uM after 24 hrs by q-PCR analysis relative to control. Format: ADME, cell-based. The following applies: read-out: FC.

A short description of series [5]: Inhibition of Hedgehog signaling pathway in mouse ASZ001 cells assessed as reduction in oxysterol-induced Gli1 mRNA expression after 24 hrs by q-PCR analysis. It counts as cell-based. Conditions: ASZ001, 24 h.
The target of series [6] is T1, Cyp24A1 mRNA (readout of VDR activation). Briefly: Activation of VDR in mouse ASZ001 cells assessed as change in Cyp24A1 mRNA expression at 5 uM after 24 hrs by q-PCR analysis relative to control. Format: ADME, cell-based. Conditions: read-out: FC.

Structures are written as SMILES. pIC50: −log10 of the molar value.

`CC(C)CCC[C@@H](C)[C@H]1CC[C@H]2[C@@H](O)C[C@H](CCO)C[C@]12C`: the inhibition (in general, the percentage by which the read-out fell short of the control) in series [1] is 39%; in series [3], “Dose-dependent effect”. In addition, the pIC50 – broadly, the negative decadic logarithm of the IC50, by convention in mol/L – in series [2] is 5.33. For the same compound, the fold induction at 24 h, 5 µM in series [4] is 17.
Turning to `CC(C)CCC[C@@H](C)[C@H]1CC[C@H]2[C@@H](Nc3ccc(O)cc3)C[C@H](CCO)C[C@]12C`, the inhibition in series [1] was 1.1%; in series [3] it was “Dose-dependent effect”. In addition, the figures for the negative-log IC50 (pIC50) in series [2] and in series [5] were 5.57 and 6.00, respectively. Also, the fold induction at 24 h, 5 µM in series [4] was found to be 7.2; in series [6], 2.
For `CC[C@@H]1C[C@H](OC(=O)c2cccc(O)c2)[C@@H]2CC[C@H]([C@H](C)CCCC(C)C)[C@@]2(C)C1`, the values for the inhibition in series [1] and in series [3] were 2% and “Dose-dependent effect”, respectively. Also, the values for the pIC50 in series [2] and in series [5] were 6.04 and 5.28, respectively. The fold induction at 24 h, 5 µM in series [4] came out at 3.6; in series [6] it was 1.3.
For `CC(C)CCC[C@@H](C)[C@H]1CC[C@H]2[C@@H](OC(=O)c3cccc(O)c3)C[C@H](Cc3ccccc3)C[C@]12C`, in series [1], the inhibition worked out at 85%. Moreover, the fold induction at 24 h, 5 µM in series [4] was 3.6.
As for `C#CCCC(=O)OCC[C@H]1C[C@H](OC(=O)c2cccc(O)c2)[C@@H]2CC[C@H]([C@H](C)CCCC(C)C)[C@@]2(C)C1`, the inhibition in series [1] was 16%; in series [3] it was “Dose-dependent effect”. Moreover, the pIC50 in series [2] was 5.20; in series [5], 5.12. The figures for the fold induction at 24 h, 5 µM in series [4] and in series [6] were 4.8 and 0.96, respectively.
Regarding `CC(C)CCC[C@@H](C)[C@H]1CC[C@H]2[C@@H](OC(=O)c3cccc(O)c3)C[C@H](CCO)C[C@]12C`, the values for the inhibition in series [1] and in series [3] were 8.7% and “Dose-dependent effect”, respectively. The pIC50 was 5.70 in series [2] and 5.39 in series [5]. Also, the values for the fold induction at 24 h, 5 µM in series [4] and in series [6] were 9 and 1.1, respectively.
For the compound `C=C[C@H]1CC(=O)[C@@H]2CC[C@H]([C@H](C)CCCC(C)C)[C@@]2(C)C1`, the inhibition in series [1] worked out at 28%. The fold induction at 24 h, 5 µM in series [4] was 19.
Consider `CC(C)CCC[C@@H](C)[C@H]1CC[C@H]2[C@@H](OC(=O)c3cccc(O)c3)C[C@H](C3CCCCC3)C[C@]12C`, for which the inhibition in series [1] was determined as 92%. In addition, the fold induction at 24 h, 5 µM in series [4] came to 2.8.
The corresponding values for `CC(C)CCC[C@@H](C)[C@H]1CC[C@H]2[C@@H](OC(=O)c3cccc(O)c3)C[C@H](c3ccccc3)C[C@]12C` are 71% and 2.3.
